# Source: patent US7541381B2, “Non-covalent inhibitors of AmpC β-lactamase” (Northwestern University, priority 2002, dated 2009)
# “Also recorded” adds a separate entry of the source.
# How the values were obtained:
# [1] = target: T1, AmpC β-lactamase (Escherichia coli, UniProt P00811); test: biochemical; type: biochemical; settings: for Ki: 50 mM TRIS pH 7.0, nitrocefin substrate, progress curve analysis; for change of AmpC inhibition/binding relative to compound 1: analogs of 1
# T1 construct: made in house
# T1 sequence (P00811 20-377): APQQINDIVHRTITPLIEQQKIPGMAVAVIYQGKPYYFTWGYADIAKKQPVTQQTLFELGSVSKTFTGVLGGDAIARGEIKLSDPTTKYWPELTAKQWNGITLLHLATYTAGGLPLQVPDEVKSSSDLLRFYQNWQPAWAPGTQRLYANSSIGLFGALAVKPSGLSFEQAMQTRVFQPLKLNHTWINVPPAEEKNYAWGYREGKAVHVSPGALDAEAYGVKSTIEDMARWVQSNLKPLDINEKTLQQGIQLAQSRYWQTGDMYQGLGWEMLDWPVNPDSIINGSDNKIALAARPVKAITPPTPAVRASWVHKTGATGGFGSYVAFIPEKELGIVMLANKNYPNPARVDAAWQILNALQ
# Experimental: Enzymology. AmpC from Escherichia coli was expressed and purified to homogeneity as described in the literature. […] All were used without further purification. Kinetic measurements with AmpC were performed in 50 mM TRIS buffer, pH 7.0, using nitrocefin as a substrate. […] Reactions were initiated by the addition of 0.875 nM enzyme and monitored in methacrylate cuvettes. […] Ki values for the compounds were obtained by comparison of progress curves in the presence and absence of inhibitor.
# [2] = system: JM109 E. coli expressing AmpC; test: Antimicrobial susceptibility testing (MIC), AmpC-expressing strain; type: cell-based
# Experimental: (§1) Antimicrobial experiments. Susceptibility testing was performed and interpreted following the guidelines of the National Committee for Clinical Laboratory Standards. To test the inhibitory activity of 1, the compound was dissolved in 50% DMSO and dilutions were performed using Luria Broth growth medium.
# [3] = system: JM109 that does not express AmpC; test: Antimicrobial susceptibility testing (MIC), strain without AmpC; type: cell-based, E. coli; settings: Escherichia coli, read-out: MIC of ampicillin in JM109 that does not express AmpC
# Experimental: as §1
# [4] = target: T2, elastase (Sus scrofa, UniProt P00772); test: elastase selectivity counter-screen; type: biochemical, porcine
# T2 construct: purchased Sigma (St. Louis, Mo.); host or cells: porcine pancreas
# T2 sequence (P00772 27-266): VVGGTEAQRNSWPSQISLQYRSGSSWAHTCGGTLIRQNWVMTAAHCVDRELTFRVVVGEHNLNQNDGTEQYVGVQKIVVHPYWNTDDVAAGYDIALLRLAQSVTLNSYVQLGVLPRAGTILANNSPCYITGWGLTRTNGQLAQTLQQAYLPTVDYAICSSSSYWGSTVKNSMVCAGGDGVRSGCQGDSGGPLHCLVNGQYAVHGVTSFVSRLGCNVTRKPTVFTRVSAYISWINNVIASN
# Experimental: (§2) The substrates for α-chymotrypsin (succinyl-ala-ala-pro-phe-p-nitroanilide) and β-trypsin (N-benzoyl-L-arginine ethyl ester, BAEE) were also purchased from Sigma. The elastase substrate used (elastase substrate 1, MeOSuc-Ala-Ala-Pro-Val-pNA) was purchased from Calbiochem (San Diego, Calif.). Substrates were diluted from 10 mM DMSO stock solutions, and all reactions were performed in 50 mM TRIS buffer, pH 7.0, 25° C. For α-chymotrypsin, 200 μM of substrate was used; the reactions were initiated by addition of 10 μL of a 0.1 mg/ml enzyme stock solution and monitored at 410 nm. For β-trypsin, 200 μM of BAEE was used, the reactions were initiated by the addition of 5 μL of a 0.2 mg/ml enzyme stock solution, and monitored at 260 nm. For elastase, 640 μM of elastase substrate was used, the reactions were initiated by the addition of 30 μL of a 0.2 mg/mL enzyme stock solution, and monitored at 385 nm. Initial rate fits to the absorbance data for the first 150 seconds of each reaction were used to determine reaction velocities.
# [5] = target: T3, β-trypsin (Bos taurus, UniProt P00760); test: biochemical; type: biochemical, bovine
# T3 construct: β-trypsin (bovine pancreatic); purchased Sigma (St. Louis, Mo.); host or cells: bovine pancreas
# T3 sequence (P00760 24-246): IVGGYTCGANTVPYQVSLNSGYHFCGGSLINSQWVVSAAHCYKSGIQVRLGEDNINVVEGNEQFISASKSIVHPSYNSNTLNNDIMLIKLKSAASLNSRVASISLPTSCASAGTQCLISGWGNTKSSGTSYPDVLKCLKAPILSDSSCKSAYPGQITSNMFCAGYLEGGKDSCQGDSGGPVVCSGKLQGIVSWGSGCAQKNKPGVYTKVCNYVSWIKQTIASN
# Experimental: as §2
# [6] = system: related serine amidases; test: Counter-screens against related serine amidases; type: biochemical
# Experimental: as §2
# [7] = target: T4, α-chymotrypsin (Bos taurus, UniProt P00766); test: biochemical; design: species or system bovine; settings: 200 μM substrate, 50 mM TRIS pH 7.0, 25° C.
# T4 construct: purchased Sigma (St. Louis, Mo.); host or cells: bovine pancreas
# Experimental: as §2
Compound,Ki [1] [µM],change of AmpC inhibition/binding relative to compound 1 [1],also measured
"Cc1oc(C)c(S(=O)(=O)Nc2cccs2)c1C(=O)O [Compound 8, 2,5-dimethyl-4-(2-thienylaminosulfonyl)furan-3-carboxylic acid]",64,–,–
"O=S(=O)(O)CCCSc1nc2ccccc2s1 [Compound 2, 3-(2-benzothiazolylthio)-1-propanesulfonic acid]",318,–,–
"O=C(O)c1sccc1S(=O)(=O)Nc1ccccc1N1CCCCC1 [Compound 7, 3-[(2-piperidinoanilino)sulfonyl]thiophene-2-carboxylic acid]",14,slight improvement in affinity,–
"O=C(O)CCSc1nc2ccccc2s1 [Compound 3, 3-(2-benzothiazolylthio)propionic acid]",646,–,–
"COC(=O)c1sccc1S(=O)(=O)Nc1ccc(Cl)cc1 [Compound 5, methyl 3-[(4-chloroanilino)sulfonyl]thiophene-2-carboxylate]",> 100,compromised inhibition; also recorded: binding was somewhat problematic,–
"CC1(C)S[C@@H]2[C@H](NC(=O)[C@H](N)c3ccccc3)C(=O)N2[C@H]1C(=O)O [Ampicillin, ampicillin, reference compound]",–,–,"MIC ([2]; Escherichia coli, read-out: MIC JM109/AmpC): 512 µg/mL; MIC [3]: 4 µg/mL"
"COc1ccc(NS(=O)(=O)c2ccccc2[N+](=O)[O-])cc1 [Compound 9, N-(4-methoxyphenyl)-2-nitro-benzenesulfonamide]",> 100,compromised inhibition; also recorded: binding was somewhat problematic,–
"Cc1ccc(S(=O)(=O)Nc2csc(C)c2C(=O)O)cc1 [Compound 4, 2-methyl-4-[[(4-methylphenyl)sulfonyl]amino]thiophene-3-carboxylic acid]",60,diminished inhibition three-fold; also recorded: reduced binding by three-fold,–
"O=C(Cc1cccs1)N[C@@H]1C(=O)N2C(C(=O)O)=C(/C=C/c3ccc([N+](=O)[O-])cc3[N+](=O)[O-])CS[C@H]12 [nitrocefin, reference compound]",–,–,"Km ([1]; read-out: Km of nitrocefin for AmpC, 50 mM TRIS buffer, pH 7.0): 127 µM"
3-([4-[3-chloro-5-(trifluoromethyl)pyridin-2-yl]piperazino]sulfonyl)thiophene-2-carboxylate [Compound 6],> 100,hindered binding,–
"O=C(O)c1sccc1S(=O)(=O)Nc1ccc(Cl)cc1 [Compound 1, 3-[(4-chloroanilino)sulfonyl]thiophene-2-carboxylic acid]",23,–,"IC50 ([4]; 640 μM elastase substrate, 50 mM TRIS pH 7.0, 25° C.): > 4000 µM; inhibition of elastase ([4]; at concentrations up to 4 mM): no inhibition; antibiotic activity of compound alone ([2]; at the concentration used in the ampicillin combination): no measurable antibiotic activity; increase in efficacy of ampicillin ([2]; bacterial cell culture, resistant strain): four-fold; minimum inhibitory concentration (MIC) of ampicillin in the presence of the compound ([2]; resistant strain overexpressing β-lactamase): 128 µg/mL; mode of inhibition of AmpC [1]: competitive, non-covalent inhibitor; also recorded: competitive, reversible inhibitor; IC50 ([5]; 200 μM BAEE, 50 mM TRIS pH 7.0, 25° C.): > 4000 µM; inhibition of trypsin ([5]; at concentrations up to 4 mM): no inhibition; inhibition of related serine amidases in counter-screens [6]: did not inhibit; IC50 [7]: > 1200 µM"
